Results from US20240150298A1, “ANTIBACTERIAL COMPOUNDS” (Blacksmith Medicines, Inc., priority 2021, published 2024).
In brackets after ≈: the same amount, converted by molar mass. Read-outs that look alike come from different tables or passages of the source.

Legend:
Assay in all cases: Bacterial susceptibility testing, MIC by broth microdilution (CLSI)
Format in all cases: cell-based
K. pneumoniae ATCC13883 = details: Klebsiella pneumoniae
Protocol: (§1) Minimal inhibitory concentrations (MIC) were determined by the broth microdilution method in accordance with the Clinical and Laboratory Standards Institute (CLSI) guidelines. In brief, organism suspensions were adjusted to a final inoculum between 3×10^5 and 7×10^5 colony-forming units (CFU)/mL. Drug dilutions and inocula were made in sterile, cation adjusted Mueller-Hinton Broth (Beckton Dickinson). In wells, an inoculum volume of 100 μL was mixed to 2 μL of DMSO with 2-fold serial dilutions of drug. All inoculated microdilution trays were incubated in ambient air at 35° C. for 18-24 h. Following incubation, the lowest concentration of the drug that prevented visible growth (OD600 nm<0.05) was recorded as the MIC. Performance of the assay was monitored by the use of laboratory quality-control strains and compounds with defined MIC spectrum, in accordance with CLSI guidelines.

E. coli ATCC25922 = details: Escherichia coli
Protocol: as §1

P. aeruginosa 209 PAO1 = details: Pseudomonas aeruginosa
Protocol: as §1

P. aeruginosa ATCC27835 = details: Pseudomonas aeruginosa
Protocol: as §1

[1] = ATCC13883, read-out: MIC K. pneumoniae ATCC13883
[2] = ATCC25922, read-out: MIC E. coli ATCC25922
[3] = PAO1, read-out: MIC P. aeruginosa 209 PAO1
[4] = ATCC27835, read-out: MIC P. aeruginosa ATCC27835
[5] = ATCC13883, broth microdilution, 35° C., 18-24 h, read-out: MIC K. pneumoniae ATCC13883
[6] = ATCC25922, broth microdilution, 35° C., 18-24 h, read-out: MIC E. coli ATCC25922
[7] = PAO1, broth microdilution, 35° C., 18-24 h, read-out: MIC P. aeruginosa 209 PAO1
[8] = ATCC27835, broth microdilution, 35° C., 18-24 h, read-out: MIC P. aeruginosa ATCC27835

MIC (K. pneumoniae ATCC13883; [5]) [µg/mL]	MIC (E. coli ATCC25922; [6]) [µg/mL]	MIC (P. aeruginosa 209 PAO1; [7]) [µg/mL]	MIC (P. aeruginosa ATCC27835; [8]) [µg/mL]	SMILES	MIC (K. pneumoniae ATCC13883; [1]) [µg/mL]	MIC (E. coli ATCC25922; [2]) [µg/mL]	MIC (P. aeruginosa 209 PAO1; [3]) [µg/mL]	MIC (P. aeruginosa ATCC27835; [4]) [µg/mL]
–	–	–	–	C[C@H](O)c1nccn1[C@@H](/C=C/c1ccc(-c2ccc([C@H]3C[C@H](NC(=O)CC#N)C3)cc2)cc1)CO [Compound 65, 2-cyano-N-((1S,3r)-3-(4′-((S,E)-4-hydroxy-3-(2-((S)-1-hydroxyethyl)-1H-imidazol-1-yl)but-1-en-1-yl)-[1,1′-biphenyl]-4-yl)cyclobutyl)acetamide]	1 (≈ 2.13 µM)	0.5 (≈ 1.06 µM)	2 (≈ 4.25 µM)	2 (≈ 4.25 µM)
0.5 (≈ 1.1 µM)	0.25 (≈ 0.548 µM)	2 (≈ 4.38 µM)	4 (≈ 8.76 µM)	C[C@H](O)c1nccn1[C@@H](/C=C/c1ccc(-c2ccc(C3CC(CNCC#N)C3)cc2)cc1)CO (stereo partly drawn) [Compound 56, 2-(((3-(4′-((S,E)-4-hydroxy-3-(2-((S)-1-hydroxyethyl)-1H-imidazol-1-yl)but-1-en-1-yl)-[1,1′-biphenyl]-4-yl)cyclobutyl)methyl)amino) acetonitrile]	–	–	–	–
4 (≈ 8.22 µM)	2 (≈ 4.11 µM)	2 (≈ 4.11 µM)	4 (≈ 8.22 µM)	C[C@H](O)c1nccn1[C@@H](/C=C/c1ccc(-c2ccc(C3CC(CNC(C#N)CO)C3)cc2)cc1)CO (stereo partly drawn) [Compound 59, 3-hydroxy-2-(((3-(4′-((S,E)-4-hydroxy-3-(2-((S)-1-hydroxyethyl)-1H-imidazol-1-yl)but-1-en-1-yl)-[1,1′-biphenyl]-4-yl)cyclobutyl)methyl)amino)propane nitrile]	–	–	–	–
4 (≈ 9.14 µM)	2 (≈ 4.57 µM)	1 (≈ 2.29 µM)	4 (≈ 9.14 µM)	COC[C@H](N)COc1ccc(-c2ccc(/C=C/[C@@H](CO)n3ccnc3[C@H](C)O)cc2)cc1 [Compound 31, (2S,E)-4-(4′-(2-amino-3-methoxypropoxy)-[1,1′-biphenyl]-4-yl)-2-(2-((S)-1-hydroxyethyl)-1H-imidazol-1-yl)but-3-en-1-ol]	–	–	–	–
1 (≈ 2.13 µM)	0.5 (≈ 1.06 µM)	2 (≈ 4.25 µM)	2 (≈ 4.25 µM)	C[C@H](O)c1nccn1[C@@H](/C=C/c1ccc(-c2ccc(C3CC(C(=O)NCC#N)C3)cc2)cc1)CO (stereo partly drawn) [Compound 50, N-(cyanomethyl)-3-(4′-((S,E)-4-hydroxy-3-(2-((S)-1-hydroxyethyl)-1H-imidazol-1-yl)but-1-en-1-yl)-[1,1′-biphenyl]-4-yl)cyclobutane-1-carboxamide]	–	–	–	–
8 (≈ 17.3 µM)	2 (≈ 4.31 µM)	2 (≈ 4.31 µM)	2 (≈ 4.31 µM)	C[C@H](O)c1nccn1[C@@H](/C=C/c1ccc(-c2ccc(C3C[C@H]3OCC(N)CO)cc2)cc1)CO (stereo partly drawn) [Compound 72, (2S,E)-4-(4′-((1S,2R)-2-(2-amino-3-hydroxypropoxy)cyclopropyl)-[1,1′-biphenyl]-4-yl)-2-(2-((S)-1-hydroxyethyl)-1H-imidazol-1-yl)but-3-en-1-ol]	–	–	–	–
16 (≈ 37.8 µM)	8 (≈ 18.9 µM)	1 (≈ 2.36 µM)	2 (≈ 4.72 µM)	C[C@H](O)c1nccn1[C@@H](/C=C/c1ccc(-c2ccc(OC[C@@H](N)CO)cc2)cc1)CO (single isomer, unassigned) [Compound 10]	–	–	–	–
16 (≈ 37.7 µM)	8 (≈ 18.8 µM)	4 (≈ 9.42 µM)	4 (≈ 9.42 µM)	C[C@H](O)c1nccn1[C@@H](/C=C/c1ccc(-c2ccc(OC[C@H](O)CO)cc2)cc1)CO [Compound 23, (R)-3-((4′-((S,E)-4-hydroxy-3-(2-((S)-1-hydroxyethyl)-1H-imidazol-1-yl)but-1-en-1-yl)-[1,1′-biphenyl]-4-yl)oxy)propane-1,2-diol]	–	–	–	–
2 (≈ 3.73 µM)	1 (≈ 1.87 µM)	4 (≈ 7.47 µM)	8 (≈ 14.9 µM)	C[C@H](O)c1nccn1[C@@H](/C=C/c1ccc(-c2ccc(C3CC(CN4CC(S(C)(=O)=O)C4)C3)cc2)cc1)CO (stereo partly drawn) [Compound 58, (S,E)-2-(2-((S)-1-hydroxyethyl)-1H-imidazol-1-yl)-4-(4′-(3-((3-(methylsulfonyl)azetidin-1-yl)methyl)cyclobutyl)-[1,1′-biphenyl]-4-yl)but-3-en-1-ol]	–	–	–	–
–	–	–	–	C[C@H](O)c1nccn1[C@@H](/C=C/c1ccc(-c2ccc([C@H]3C[C@H](NC(=O)CO)C3)cc2)cc1)CO [Compound 64, 2-hydroxy-N-((1S,3r)-3-(4′-((S,E)-4-hydroxy-3-(2-((S)-1-hydroxyethyl)-1H-imidazol-1-yl)but-1-en-1-yl)-[1,1′-biphenyl]-4-yl)cyclobutyl)acetamide]	2 (≈ 4.33 µM)	1 (≈ 2.17 µM)	1 (≈ 2.17 µM)	2 (≈ 4.33 µM)
1 (≈ 1.84 µM)	0.25 (≈ 0.461 µM)	4 (≈ 7.37 µM)	4 (≈ 7.37 µM)	C[C@H](O)c1nccn1[C@@H](/C=C/c1ccc(-c2ccc(C3CC(CNCc4noc(C(N)=O)n4)C3)cc2)cc1)CO (stereo partly drawn) [Compound 57, 3-((((3-(4′-((S,E)-4-hydroxy-3-(2-((S)-1-hydroxyethyl)-1H-imidazol-1-yl)but-1-en-1-yl)-[1,1′-biphenyl]-4-yl)cyclobutyl)methyl)amino)methyl)-1,2,4-oxadiazole-5-carboxamide]	–	–	–	–
16 (≈ 31.6 µM)	4 (≈ 7.91 µM)	4 (≈ 7.91 µM)	4 (≈ 7.91 µM)	C[C@H](O)c1nccn1[C@@H](/C=C/c1ccc(-c2ccc(C3CC(C(=O)NCC(O)CO)C3)cc2)cc1)CO (stereo partly drawn) [Compound 52, N-(2,3-dihydroxypropyl)-3-(4′-((S,E)-4-hydroxy-3-(2-((S)-1-hydroxyethyl)-1H-imidazol-1-yl)but-1-en-1-yl)-[1,1′-biphenyl]-4-yl)cyclobutane-1-carboxamide]	–	–	–	–
1 (≈ 1.89 µM)	0.5 (≈ 0.946 µM)	4 (≈ 7.57 µM)	4 (≈ 7.57 µM)	C[C@H](O)c1nccn1[C@@H](/C=C/c1ccc(-c2ccc(C3CC(NCc4noc(C(N)=O)n4)C3)cc2)cc1)CO (stereo partly drawn) [Compound 47, 3-(((3-(4′-((S,E)-4-hydroxy-3-(2-((S)-1-hydroxyethyl)-1H-imidazol-1-yl)but-1-en-1-yl)-[1,1′-biphenyl]-4-yl)cyclobutyl)amino)methyl)-1,2,4-oxadiazole-5-carboxamide]	–	–	–	–
4 (≈ 8.41 µM)	4 (≈ 8.41 µM)	2 (≈ 4.21 µM)	2 (≈ 4.21 µM)	C[C@H](O)c1nccn1[C@@H](/C=C/c1ccc(-c2ccc(C3CC(C(=O)NCCO)C3)cc2)cc1)CO (stereo partly drawn) [Compound 49, 3-(4′-((S,E)-4-hydroxy-3-(2-((S)-1-hydroxyethyl)-1H-imidazol-1-yl)but-1-en-1-yl)-[1,1′-biphenyl]-4-yl)-N-(2-hydroxyethyl)cyclobutane-1-carboxamide]	–	–	–	–
1 (≈ 2.06 µM)	–	2 (≈ 4.13 µM)	2 (≈ 4.13 µM)	C[C@H](O)c1nccn1[C@@H](/C=C/c1ccc(-c2ccc(C3CC(NCc4cocn4)C3)cc2)cc1)CO (stereo partly drawn) [Compound 40, (S,E)-2-(2-((S)-1-hydroxyethyl)-1H-imidazol-1-yl)-4-(4′-(3-((oxazol-4-ylmethyl)amino)cyclobutyl)-[1,1′-biphenyl]-4-yl)but-3-en-1-ol]	–	–	–	–
–	4 (≈ 8.9 µM)	2 (≈ 4.45 µM)	2 (≈ 4.45 µM)	C[C@H](O)c1nccn1[C@@H](/C=C/c1ccc(-c2ccc(OC3CN(CCO)C3)cc2)cc1)CO [Compound 20, (S,E)-2-(2-((S)-1-hydroxyethyl)-1H-imidazol-1-yl)-4-(4′-((1-(2-hydroxyethyl)azetidin-3-yl)oxy)-[1,1′-biphenyl]-4-yl)but-3-en-1-ol]	–	–	–	–
2 (≈ 4.56 µM)	–	2 (≈ 4.56 µM)	2 (≈ 4.56 µM)	C[C@H](O)c1nccn1[C@@H](/C=C/c1ccc(-c2ccc(OCCC(O)CO)cc2)cc1)CO (mixture of isomers) [Compound 43, 4-((4′-((S,E)-4-hydroxy-3-(2-((S)-1-hydroxyethyl)-1H-imidazol-1-yl)but-1-en-1-yl)-[1,1′-biphenyl]-4-yl)oxy)butane-1,2-diol]	–	–	–	–
2 (≈ 4.23 µM)	–	2 (≈ 4.23 µM)	2 (≈ 4.23 µM)	C[C@H](O)c1nccn1[C@@H](/C=C/c1ccc(-c2ccc(C3CC(NC(C#N)CO)C3)cc2)cc1)CO (stereo partly drawn) [Compound 41, 3-hydroxy-2-((3-(4′-((S,E)-4-hydroxy-3-(2-((S)-1-hydroxyethyl)-1H-imidazol-1-yl)but-1-en-1-yl)-[1,1′-biphenyl]-4-yl)cyclobutyl)amino)propanenitrile]	–	–	–	–
0.5 (≈ 1.03 µM)	–	4 (≈ 8.24 µM)	4 (≈ 8.24 µM)	C[C@H](O)c1nccn1[C@@H](/C=C/c1ccc(-c2ccc(C3CC(NCc4ncon4)C3)cc2)cc1)CO (stereo partly drawn) [Compound 42, (S,E)-4-(4′-(3-(((1,2,4-oxadiazol-3-yl)methyl)amino)cyclobutyl)-[1,1′-biphenyl]-4-yl)-2-(2-((S)-1-hydroxyethyl)-1H-imidazol-1-yl)but-3-en-1-ol]	–	–	–	–
–	–	2 (≈ 4.72 µM)	2 (≈ 4.72 µM)	C[C@H](O)c1nccn1[C@@H](/C=C/c1ccc(-c2ccc(OC[C@H](N)CO)cc2)cc1)CO (single isomer, unassigned) [Compound 9]	–	–	–	–
–	0.5 (≈ 1.23 µM)	0.5 (≈ 1.23 µM)	2 (≈ 4.93 µM)	C[C@H](O)c1nccn1[C@@H](/C=C/c1ccc(-c2ccc(O[C@@H]3C[C@H]3N)cc2)cc1)CO (single isomer, unassigned) [Compound 15]	–	–	–	–
